Measured values as given in patent EP1166782A2, “Anti-retroviral pharmaceutical compositions” (Yang, Chi-Chiang, priority 2000, dated 2002).
Like-named read-outs stand apart in the source and are kept apart here.

Key:
cells = assay: Cellular activities in microculture tetrazolium (MTT) tests; format: cell-based
Experimental: The cellular activities were tested according to method as described in Alley M.C. et al, Cancer Res. 1988; 48(3):589-601. The principle of the method resides in that live cells can reduce MTT., i.e., 3-[4,5-dimethylthiazol-2-yl]-2,5-diphenyltetrazolium bromide)(tetrazolium salt) to formazan crystal through the dehydrogenase metabolism in Mitochondria. The crystal was dissolved in propanol and OD values were determined at 570 nm. The OD values can indicate the numbers of the live cells. The growth conditions of the cells were observed firstly. The cells were diluted to 2x10^4 cells/ml. 100µl sample taken by micropipet was placed in a 96-well plate. The plate was cultured for 24 hours as 37°C and 100µl of the compounds to be tested, which were prepared in medium, were added in each well. […] After culture for 4 hours, supernatant liquid was absorbed and 100 µl DMSO and 10µl /well was added. Each well was homogeneously mixed. The absorbance was determined at 570 nm.

[1] = tested on: macrophage-tropic (NL-43); assay: P24 quantification (P24 EIA) in infected PBMCs, NL-43; format: cell-based, HIV-1; settings: PBMC; for concentrations of the viral P24 antigen, NL43(+): (+) original concentration of compound maintained after washing; for concentrations of the viral P24 antigen, NL43(-): (-) compound removed after washing
Experimental: (§1) PBMCs were treated with various concentrations of CAPE, MC and PEDMC provided in Example 2 and simultaneously infected with […] and macrophage and T cells dual tropic (89.6) HIV-1 isolates. The next day, the added compounds were removed by washing methods or maintained at the same concentration. Samples were divided into two groups and the upernatants of the culture medium were collected at the 3 and 7 days after infection, respectively. The use of P24 EIA Reagent Kit of Abbott Laboratory compares the concentrations of viral P24 antigen with or without the compounds tested.

T cells-tropic (JRCSF) = assay: P24 quantification (P24 EIA) in infected PBMCs, JRCSF; format: cell-based, HIV-1; settings: PBMC; for concentrations of the viral P24 antigen, JRCSF(+): (+) original concentration of compound maintained after washing; for concentrations of the viral P24 antigen, JRCSF(-): (-) compound removed after washing
Experimental: as §1

[2] = tested on: macrophage and T cells dual tropic (89.6); assay: P24 quantification (P24 EIA) in infected PBMCs, 89.6; format: cell-based, HIV-1; settings: PBMC; for concentrations of the viral P24 antigen, 89.6(+): (+) original concentration of compound maintained after washing; for concentrations of the viral P24 antigen, 89.6(-): (-) compound removed after washing
Experimental: as §1

[3] = tested on: various HIV isolates (NL-43, JRCSF or 89.6); assay: P24 quantification, summary statements over all isolates; format: cell-based, HIV-1; settings: Figures 3-5; PBMC infected with NL-43, JRCSF or 89.6
Experimental: as §1

[4] = tested on: Peripheral Blood Mononuclear Cells (PBMC); settings: for The numbers of dead cells in 400 cells' count / % viability: 48 hours; for The numbers of dead cells in 400 cells' count: control 9 dead cells; for % viability: viable cells versus control (391);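 for all read-outs here: trypan blue dye exclusion, cells stained and counted from quadruplicate dishes, DMSO vehicle kept under 0.5%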
Experimental: Viability of the cells was assayed by the trypan blue dye exclusion method. […] The concentration of DMSO was adjusted to be less than 0.5%. Cells from quadruplicated dishes were washed once with Hank's Balanced Salt Solution (HBSS). According to the process, the floating dead cells will be separated from the live monolayer cells. Then the cells were stained with trypan blue and counted. The total number of viable cells in the control group was considered as 100% viability and the agent-treated cells were compared with the control group for the determination of % viability. The % viability of agent-treated cells was calculated from the total number of viable cells in the control group and in the agent-treated group.

COc1ccc(C=CC(=O)OCCc2ccccc2)cc1OC [PEDMC, phenethyl dimethyl caffeate]
MTT 24h, cellular activities (cells; 0.1 µM): 92.38 relative percentage
MTT 48h, cellular activities (cells; 0.1 µM): 97.31 relative percentage
MTT 24h, cellular activities (cells; 0.5 µM): 98.72 relative percentage
MTT 48h, cellular activities (cells; 0.5 µM): 98.72 relative percentage
MTT 24h, cellular activities (cells; 1 µM): 98.26 relative percentage
MTT 48h, cellular activities (cells; 1 µM): 105.28 relative percentage
MTT 24h, cellular activities (cells; 5 µM): 94.33 relative percentage
MTT 48h, cellular activities (cells; 5 µM): 104.07 relative percentage
MTT 24h, cellular activities (cells; 10 µM): 98.72 relative percentage
MTT 48h, cellular activities (cells; 10 µM): 98.08 relative percentage
MTT 24h, cellular activities (cells; 25 µM): 107.27 relative percentage
MTT 48h, cellular activities (cells; 25 µM): 98.78 relative percentage
MTT 24h, cellular activities (cells; 50 µM): 102.03 relative percentage
MTT 48h, cellular activities (cells; 50 µM): 97.15 relative percentage
MTT 24h, cellular activities (cells; 100 µM): 106.06 relative percentage
MTT 48h, cellular activities (cells; 100 µM): 97.74 relative percentage
MTT 24h, cellular activities (cells; 200 µM): 97.93 relative percentage
MTT 48h, cellular activities (cells; 200 µM): 96.32 relative percentage
MTT 24h, cellular activities (cells; 400 µM): 94.8 relative percentage
MTT 48h, cellular activities (cells; 400 µM): 93.76 relative percentage
cellular activities in MTT tests (result in words) (cells; Figures 1 and 2, 24 and 48 hours): no substantial effects
concentrations of the viral P24 antigen, NL43(+) ([1]; 0.1 µM): 1000 unit
concentrations of the viral P24 antigen, NL43(-) ([1]; 0.1 µM): 1000 unit
concentrations of the viral P24 antigen, NL43(+) ([1]; 0.5 µM): 1000 unit
concentrations of the viral P24 antigen, NL43(-) ([1]; 0.5 µM): 1000 unit
concentrations of the viral P24 antigen, NL43(+) ([1]; 1 µM): 1000 unit
concentrations of the viral P24 antigen, NL43(-) ([1]; 1 µM): 1000 unit
concentrations of the viral P24 antigen, NL43(+) ([1]; 5 µM): 1000 unit
concentrations of the viral P24 antigen, NL43(-) ([1]; 5 µM): 1000 unit
concentrations of the viral P24 antigen, NL43(+) ([1]; 10 µM): 1000 unit
concentrations of the viral P24 antigen, NL43(-) ([1]; 10 µM): 1000 unit
concentrations of the viral P24 antigen, NL43(+) ([1]; 25 µM): 1000 unit
concentrations of the viral P24 antigen, NL43(-) ([1]; 25 µM): 1000 unit
concentrations of the viral P24 antigen, NL43(+) ([1]; 50 µM): 1000 unit
concentrations of the viral P24 antigen, NL43(-) ([1]; 50 µM): 1000 unit
concentrations of the viral P24 antigen, NL43(+) ([1]; 100 µM): 1000 unit
concentrations of the viral P24 antigen, NL43(-) ([1]; 100 µM): 1000 unit
concentrations of the viral P24 antigen, NL43(+) ([1]; 200 µM): 890.43 unit
concentrations of the viral P24 antigen, NL43(-) ([1]; 200 µM): 981.43 unit
concentrations of the viral P24 antigen, NL43(+) ([1]; 400 µM): 640.7 unit
concentrations of the viral P24 antigen, NL43(-) ([1]; 400 µM): 898.4 unit
concentrations of the viral P24 antigen, JRCSF(+) (T cells-tropic (JRCSF); 0.1 µM): 1000 unit
concentrations of the viral P24 antigen, JRCSF(-) (T cells-tropic (JRCSF); 0.1 µM): 1000 unit
concentrations of the viral P24 antigen, JRCSF(+) (T cells-tropic (JRCSF); 0.5 µM): 1000 unit
concentrations of the viral P24 antigen, JRCSF(-) (T cells-tropic (JRCSF); 0.5 µM): 1000 unit
concentrations of the viral P24 antigen, JRCSF(+) (T cells-tropic (JRCSF); 1 µM): 1000 unit
concentrations of the viral P24 antigen, JRCSF(-) (T cells-tropic (JRCSF); 1 µM): 1000 unit
concentrations of the viral P24 antigen, JRCSF(+) (T cells-tropic (JRCSF); 5 µM): 1000 unit
concentrations of the viral P24 antigen, JRCSF(-) (T cells-tropic (JRCSF); 5 µM): 1000 unit
concentrations of the viral P24 antigen, JRCSF(+) (T cells-tropic (JRCSF); 10 µM): 1000 unit
concentrations of the viral P24 antigen, JRCSF(-) (T cells-tropic (JRCSF); 10 µM): 1000 unit
concentrations of the viral P24 antigen, JRCSF(+) (T cells-tropic (JRCSF); 25 µM): 1000 unit
concentrations of the viral P24 antigen, JRCSF(-) (T cells-tropic (JRCSF); 25 µM): 1000 unit
concentrations of the viral P24 antigen, JRCSF(+) (T cells-tropic (JRCSF); 50 µM): 1000 unit
concentrations of the viral P24 antigen, JRCSF(-) (T cells-tropic (JRCSF); 50 µM): 1000 unit
concentrations of the viral P24 antigen, JRCSF(+) (T cells-tropic (JRCSF); 100 µM): 892.45 unit
concentrations of the viral P24 antigen, JRCSF(-) (T cells-tropic (JRCSF); 100 µM): 1000 unit
concentrations of the viral P24 antigen, JRCSF(+) (T cells-tropic (JRCSF); 200 µM): 452.46 unit
concentrations of the viral P24 antigen, JRCSF(-) (T cells-tropic (JRCSF); 200 µM): 1000 unit
concentrations of the viral P24 antigen, JRCSF(+) (T cells-tropic (JRCSF); 400 µM): 348.96 unit
concentrations of the viral P24 antigen, JRCSF(-) (T cells-tropic (JRCSF); 400 µM): 869.4 unit
concentrations of the viral P24 antigen, 89.6(+) ([2]; 0.1 µM): 1000 unit
concentrations of the viral P24 antigen, 89.6(-) ([2]; 0.1 µM): 1000 unit
concentrations of the viral P24 antigen, 89.6(+) ([2]; 0.5 µM): 1000 unit
concentrations of the viral P24 antigen, 89.6(-) ([2]; 0.5 µM): 1000 unit
concentrations of the viral P24 antigen, 89.6(+) ([2]; 1 µM): 1000 unit
concentrations of the viral P24 antigen, 89.6(-) ([2]; 1 µM): 1000 unit
concentrations of the viral P24 antigen, 89.6(+) ([2]; 5 µM): 1000 unit
concentrations of the viral P24 antigen, 89.6(-) ([2]; 5 µM): 1000 unit
concentrations of the viral P24 antigen, 89.6(+) ([2]; 10 µM): 965.48 unit
concentrations of the viral P24 antigen, 89.6(-) ([2]; 10 µM): 932.67 unit
concentrations of the viral P24 antigen, 89.6(+) ([2]; 25 µM): 886.42 unit
concentrations of the viral P24 antigen, 89.6(-) ([2]; 25 µM): 927.4 unit
concentrations of the viral P24 antigen, 89.6(+) ([2]; 50 µM): 747.3 unit
concentrations of the viral P24 antigen, 89.6(-) ([2]; 50 µM): 681.42 unit
concentrations of the viral P24 antigen, 89.6(+) ([2]; 100 µM): 238.49 unit
concentrations of the viral P24 antigen, 89.6(-) ([2]; 100 µM): 647 unit
concentrations of the viral P24 antigen, 89.6(+) ([2]; 200 µM): 187.59 unit
concentrations of the viral P24 antigen, 89.6(-) ([2]; 200 µM): 539.82 unit
concentrations of the viral P24 antigen, 89.6(+) ([2]; 400 µM): 84.85 unit
concentrations of the viral P24 antigen, 89.6(-) ([2]; 400 µM): 494.91 unit
viral replications (result in words) [3]: significantly inhibited viral replications
The numbers of dead cells in 400 cells' count ([4]; 0.1 µM): 11
% viability ([4]; 0.1 µM): 389/391 (99.5%)
The numbers of dead cells in 400 cells' count ([4]; 0.5 µM): 10
% viability ([4]; 0.5 µM): 390/391 (99.7%)
The numbers of dead cells in 400 cells' count ([4]; 1 µM): 7
% viability ([4]; 1 µM): 393/391 (100.5%)
The numbers of dead cells in 400 cells' count ([4]; 5 µM): 11
% viability ([4]; 5 µM): 389/391 (99.5%)
The numbers of dead cells in 400 cells' count ([4]; 10 µM): 9
% viability ([4]; 10 µM): 391/391 (100%)
The numbers of dead cells in 400 cells' count ([4]; 25 µM): 8
% viability ([4]; 25 µM): 392/391 (100.3%)
The numbers of dead cells in 400 cells' count ([4]; 50 µM): 10
% viability ([4]; 50 µM): 390/391 (99.7%)
The numbers of dead cells in 400 cells' count ([4]; 100 µM): 10
% viability ([4]; 100 µM): 390/391 (99.7%)
The numbers of dead cells in 400 cells' count ([4]; 200 µM): 7
% viability ([4]; 200 µM): 393/391 (100.5%)
The numbers of dead cells in 400 cells' count ([4]; 400 µM): 6
% viability ([4]; 400 µM): 394/391 (100.8%)
viabilities of PBMC under high-dose versus low-dose treatments (result in words) ([4]; high dose up to 400 µM compared with 0.1-10 µM): no substantial differences
